According to ChEMBL document CHEMBL1777733, “The discovery and structure-activity relationships of pyrano[3,4-b]indole-based inhibitors of hepatitis C virus NS5B polymerase” (Bioorg Med Chem Lett, 2011):

Experiments:
[1] = Inhibition of HCV BB7 NS5B polymerase after 15 mins; design: species or system Hepacivirus hominis
[2] = Inhibition of HCV BK NS5B polymerase after 15 mins; design: species or system Hepatitis C virus (isolate BK)
Hepatitis C virus [3] = assay: Antiviral activity against HCV genotype 1b infected in human Huh7 cells assessed as reduction of viral RNA level after 3 days by RT-PCR method; assay type: functional, organism-based, Hepacivirus hominis; settings: Huh-7, 72 h
Hepatitis C virus [4] = assay: Antiviral activity against HCV genotype 1b infected in human Huh7 cells assessed as decrease in viral NS5A levels after 3 days by ELISA; assay type: functional, organism-based, Hepacivirus hominis; settings: Huh-7, 72 h

IC50 [1] | IC50 [2] | EC50 (Hepatitis C virus [3]) | EC50 (Hepatitis C virus [4]) | SMILES
3 nM | 12 nM | 20 nM | – | CC[C@H](C)[C@]1(CC(=O)O)OCCc2c1[nH]c1c(C)c(OCCn3cccn3)cc(C#N)c21
5 nM | 5 nM | – | – | CCC[C@]1(CC(=O)O)OCCc2c1[nH]c1c(C)c(OCCn3cccn3)cc(C#N)c21
8 nM | 6 nM | – | 480 nM | CCC[C@]1(CC(=O)O)OCCc2c1[nH]c1c(C)c(OCc3cc(C)on3)cc(C#N)c21
20 nM | 30 nM | – | 760 nM | CCC[C@]1(CC(=O)O)OCCc2c1[nH]c1c(C)c(OCc3cc(C)n(C)n3)cc(C#N)c21
3 nM | 3 nM | – | 120 nM | CCC[C@]1(CC(=O)O)OCCc2c1[nH]c1c(C)c(OC[C@H](C)n3cccn3)cc(C#N)c21
7 nM | 7 nM | – | 340 nM | CCC[C@]1(CC(=O)O)OCCc2c1[nH]c1c(C)c(OC[C@@H](C)n3cccn3)cc(C#N)c21
2 nM | 2 nM | 20 nM | – | CC[C@H](C)[C@]1(CC(=O)O)OCCc2c1[nH]c1c(C)c(OC[C@H](C)n3cccn3)cc(C#N)c21
400 nM | 300 nM | – | – | CCC[C@]1(CC(=O)O)OCCc2c1[nH]c1c(C)ccc(C#N)c21
970 nM | 1300 nM | – | > 100000 nM | CCCC1(CC(=O)O)OCCc2c1[nH]c1c(C)c(C(=O)NC)cc(C#N)c21 (racemic)
20000 nM | 16000 nM | – | > 100000 nM | CCCC1(CC(=O)O)OCCc2c1[nH]c1c(C)c(C(=O)N(C)C)cc(C#N)c21 (racemic)
2000 nM | 3000 nM | – | > 100000 nM | CCCNC(=O)c1cc(C#N)c2c3c([nH]c2c1C)C(CCC)(CC(=O)O)OCC3 (racemic)
670 nM | 980 nM | – | > 100000 nM | CCCC1(CC(=O)O)OCCc2c1[nH]c1c(C)c(C(=O)NCc3ccccc3)cc(C#N)c21 (racemic)
300 nM | 540 nM | – | 56000 nM | CCCC1(CC(=O)O)OCCc2c1[nH]c1c(C)c(C(=O)NCc3ccc4c(c3)OCO4)cc(C#N)c21 (racemic)
640 nM | 1200 nM | – | > 100000 nM | CCCC1(CC(=O)O)OCCc2c1[nH]c1c(C)c(C(=O)NCCc3ccccn3)cc(C#N)c21 (racemic)
560 nM | 860 nM | – | > 100000 nM | CCCC1(CC(=O)O)OCCc2c1[nH]c1c(C)c(C(=O)NCCc3ncc[nH]3)cc(C#N)c21 (racemic)
200 nM | 260 nM | – | 47000 nM | CCCC1(CC(=O)O)OCCc2c1[nH]c1c(C)c(O)cc(C#N)c21 (racemic)
130 nM | 360 nM | – | 20000 nM | CCCC1(CC(=O)O)OCCc2c1[nH]c1c(C)c(OC)cc(C#N)c21 (racemic)
70 nM | 110 nM | – | 3500 nM | CCCC1(CC(=O)O)OCCc2c1[nH]c1c(C)c(OCC)cc(C#N)c21 (racemic)
70 nM | 70 nM | – | 2900 nM | CCCOc1cc(C#N)c2c3c([nH]c2c1C)C(CCC)(CC(=O)O)OCC3 (racemic)
220 nM | 480 nM | – | 19700 nM | CCCC1(CC(=O)O)OCCc2c1[nH]c1c(C)c(OC(C)C)cc(C#N)c21 (racemic)
90 nM | 40 nM | – | 4900 nM | CCCC1(CC(=O)O)OCCc2c1[nH]c1c(C)c(OCCOC)cc(C#N)c21 (racemic)
950 nM | 1100 nM | – | 26000 nM | CCCC1(CC(=O)O)OCCc2c1[nH]c1c(C)c(OCCN3CCCC3)cc(C#N)c21 (racemic)
20 nM | 20 nM | – | 390 nM | CCCC1(CC(=O)O)OCCc2c1[nH]c1c(C)c(OCc3ccccn3)cc(C#N)c21 (racemic)
230 nM | 310 nM | – | 8300 nM | CCCC1(CC(=O)O)OCCc2c1[nH]c1c(C)c(OCCc3ccncc3)cc(C#N)c21 (racemic)
20 nM | 19 nM | – | 1600 nM | CCCC1(CC(=O)O)OCCc2c1[nH]c1c(C)c(OCc3cnccn3)cc(C#N)c21 (racemic)
